Results reported in the supplement of paper PMC10307832.

Key:
Assay in all cases: relative viability (nuclei count vs DMSO), 5 days (fraction); higher = more cells survive
[1] = compound: C1CNCCC1C2=CC(=NN2)C3=CC=NC=C3 + C[C@@H](Oc1cc(-c2cnn(C3CCNCC3)c2)cnc1N)c1c(Cl)ccc(F)c1Cl [Crizotinib] (partner 1 µM)
Outline: (§1)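 Lung cancer cell lines in 1536-well plates got either a single drug or a fixed anchor-drug dose together with five library-drug doses (not always all listed) in √10 steps, by pin tool, on the day after seeding. Nuclei were counted after 5 days, and relative viability is the treated-to-vehicle ratio of nuclei counts. Values are medians of duplicate plates.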

[2] = compound: C[C@@H](N)c1ccc(C(=O)Nc2ccnc3[nH]ccc23)cc1 + CC(=O)c1c(C)c2cnc(Nc3ccc(N4CCNCC4)cn3)nc2n(C2CCCC2)c1=O [Palbociclib] (partner 0.5 µM)
Outline: as §1

[3] = compound: O[C@H]1CC[C@H](Nc2ncc3nc(Nc4c(F)cc(F)cc4F)n([C@H]4CCOC4)c3n2)CC1 [Tanzisertib] + O=C(CCCCCCC(=O)Nc1ccccc1)NO [Vorinostat] (partner 1 µM)
Outline: as §1

Cell Line | relative viability ([1]; first compound 0.08 µM) | relative viability ([1]; first compound 0.8 µM) | relative viability ([1]; first compound 2.53 µM) | relative viability ([1]; first compound 8 µM) | relative viability ([2]; first compound 0.04 µM) | relative viability ([2]; first compound 0.1265 µM) | relative viability ([2]; first compound 0.4 µM) | relative viability ([2]; first compound 1.265 µM) | relative viability ([2]; first compound 4 µM) | relative viability ([3]; first compound 0.08 µM) | relative viability ([3]; first compound 0.253 µM) | relative viability ([3]; first compound 0.8 µM) | relative viability ([3]; first compound 2.53 µM) | relative viability ([3]; first compound 8 µM)
NCI-H2347 | 0.681 | 0.676 | 0.939 | 0.781 | 0.422 | 0.443 | 0.41 | 0.483 | 0.463 | 0.744 | 0.628 | 0.696 | 0.588 | 0.463
LXF-289 | 0.842 | 0.88 | 0.801 | 0.837 | 0.613 | 0.611 | 0.565 | 0.61 | 0.512 | 0.835 | 0.766 | 0.88 | 0.818 | 0.767
LU99A | 0.5 | 0.586 | 0.596 | 0.558 | – | 0.372 | 0.387 | 0.343 | 0.275 | 0.565 | 0.447 | 0.51 | 0.559 | 0.519
PC-14 | 0.917 | 0.874 | 1.04 | 0.835 | 0.552 | 0.537 | 0.483 | – | 0.367 | 0.75 | 0.735 | 0.701 | 0.627 | 0.357
NCI-H2085 | 0.976 | 0.938 | 0.973 | 0.825 | 0.454 | 0.452 | 0.402 | 0.373 | 0.406 | – | 0.801 | 0.917 | 0.828 | 0.879
NCI-H2170 | 1.04 | 1.23 | 1.42 | 1.15 | 0.423 | 0.412 | 0.423 | 0.417 | 0.395 | 0.806 | 0.864 | 0.874 | 0.82 | 0.705
HCC-78 | 0.369 | – | 0.399 | 0.381 | 0.456 | 0.45 | 0.544 | – | 0.482 | 0.505 | 0.455 | 0.461 | 0.403 | 0.447
NCI-H2126 | 0.952 | 1.05 | 1.01 | 0.979 | 0.34 | 0.351 | 0.364 | 0.378 | 0.389 | 0.86 | 0.758 | 0.85 | 0.727 | 0.454
H3255 | 0.891 | 0.816 | 1.02 | 0.609 | 0.299 | 0.298 | 0.298 | 0.336 | 0.286 | 0.818 | 0.938 | 0.787 | 0.721 | 0.345
HCC-15 | 0.805 | 0.928 | 0.839 | 0.779 | 0.705 | 0.704 | 0.704 | 0.694 | 0.674 | 0.91 | 0.766 | 0.857 | 0.807 | 0.923
NCI-H661 | 1.15 | 0.96 | 1.05 | 0.902 | 0.388 | 0.464 | 0.41 | 0.35 | 0.362 | 0.799 | 0.724 | 0.798 | 0.859 | 0.797
NCI-H2009 | 0.96 | 1.08 | 1.08 | 1.03 | 0.194 | 0.2 | 0.213 | 0.153 | 0.154 | 0.728 | 0.743 | 0.773 | 0.753 | 0.729
HCC-44 | 0.889 | 0.908 | 0.842 | 0.839 | 0.929 | 0.96 | 1.02 | 1.15 | 1.02 | 1.22 | 1.16 | 1.19 | 1.19 | 1.25
